From ChEMBL document CHEMBL1122998, “New antihistaminic theophylline or theobromine derivatives” (1985)

Key:
Cavia porcellus [1] = test: Percentage decrease in bronchodilator activity against serotonin-induced bronchospasm reaction in guinea pig by intraveneous administration at dose 250 ug/kg; format: functional
Cavia porcellus [2] = test: Percent decrease in bronchodilator activity against acetylcholine-induced bronchospasm reaction in guinea pig by intraveneous administration at dose 250 ug/kg; format: functional
Cavia porcellus [3] = test: Percent decrease in bronchodilator activity against histamine-induced bronchospasm reaction in guinea pig by intraveneous administration at dose 10.5 ug/kg
Rattus norvegicus [4] = test: Percent decrease in antiallergic activity by antigen/antibody reaction assay in rat by oral administration at a dose of 10 mg/kg; format: functional
Rattus norvegicus [5] = test: Percentage decrease in antiallergic activity against cutaneous reaction to histamine in rat, by oral administration at a dose of 10 mg/kg; format: functional

Compound	Decrease (Cavia porcellus [1])	Decrease (Cavia porcellus [2])	Decrease (Cavia porcellus [3])	Decrease (Rattus norvegicus [4])	Decrease (Rattus norvegicus [5])
COc1ccc(SCCCN2CCN(CCCn3cnc4c3c(=O)n(C)c(=O)n4C)CC2)cc1	0%	0%	53%	–	–
Cn1c(=O)c2c(ncn2CCCN2CCN(CCCSc3ccc(Cl)cc3)CC2)n(C)c1=O	0%	0%	25%	0%	0%
Cn1c(=O)c2c(ncn2C/C=C/CN2CCN(CCCSc3ccccc3)CC2)n(C)c1=O	20%	0%	8%	8%	4%
COc1ccc(OCCCN2CCN(CCCn3cnc4c3c(=O)n(C)c(=O)n4C)CC2)cc1	0%	25%	60%	0%	0%
Cn1c(=O)c2c(ncn2CCC(O)CCN2CCN(CCCSc3ccccc3)CC2)n(C)c1=O (stereo unspecified)	36%	20%	35%	70%	38%
Cn1c(=O)c2c(ncn2CCCCCCN2CCN(CCCCSc3ccccc3)CC2)n(C)c1=O	23%	23%	0%	0%	0%
Cn1c(=O)c2c(ncn2CC(O)CN2CCN(CCCCSc3ccccc3)CC2)n(C)c1=O (stereo unspecified)	0%	34%	13%	0%	0%
Cn1cnc2c1c(=O)n(CC(O)CN1CCN(CCCSc3ccc(Cl)cc3)CC1)c(=O)n2C (stereo unspecified)	8%	11%	0%	0%	0%
Cn1c(=O)c2c(ncn2CC(=O)N2CCN(CCCSc3ccccc3)CC2)n(C)c1=O	21%	16%	31%	15%	10%
CC(C(=O)N1CCN(CCCSc2ccccc2)CC1)n1cnc2c1c(=O)n(C)c(=O)n2C (stereo unspecified)	0%	4%	3%	5%	6%
Cn1c(=O)c2c(ncn2CCCN2CCN(CCCCOc3ccccc3)CC2)n(C)c1=O	26%	35%	80%	0%	0%
Cn1c(=O)c2c(ncn2CC(O)CN2CCN(CCCCSc3ccc(Cl)cc3)CC2)n(C)c1=O (stereo unspecified)	0%	0%	0%	0%	0%
Cn1c(=O)c2c(ncn2CCCN2CCN(CCCCSc3ccc(Cl)cc3)CC2)n(C)c1=O	23%	26%	3%	0%	0%
COc1ccc(OCCCN2CCN(CC(O)Cn3c(=O)c4c(ncn4C)n(C)c3=O)CC2)cc1 (stereo unspecified)	3%	11%	28%	0%	0%
Cn1cnc2c1c(=O)n(CC(O)CN1CCN(CCCOc3ccccc3)CC1)c(=O)n2C (stereo unspecified)	50%	0%	10%	76%	30%
COc1ccc(OCCCN2CCN(CC(O)Cn3cnc4c3c(=O)n(C)c(=O)n4C)CC2)cc1 (stereo unspecified)	0%	0%	27%	0%	0%
Cn1c(=O)c2c(ncn2CC(O)CN2CCN(CCOc3ccccc3)CC2)n(C)c1=O (stereo unspecified)	21%	0%	76%	59%	56%
Cn1c(=O)c2c(ncn2CN2CCN(CCCSc3ccccc3)CC2)n(C)c1=O	0%	0%	9%	0%	0%
CN(CCCSc1ccccc1)CCN(C)CCCn1cnc2c1c(=O)n(C)c(=O)n2C	50%	12%	2%	–	–
Cn1c(=O)c2c(ncn2CC(O)CN2CCN(CCCOc3ccc(Cl)cc3)CC2)n(C)c1=O (stereo unspecified)	0%	0%	19%	22%	44%
Cn1cnc2c1c(=O)n(CCCN1CCN(CC(O)CSc3ccccc3)CC1)c(=O)n2C (stereo unspecified)	3%	2%	25%	0%	0%
Cc1ccc(SCCCN2CCN(CC(O)Cn3cnc4c3c(=O)n(C)c(=O)n4C)CC2)cc1 (stereo unspecified)	0%	0%	5%	19%	24%
